Reference: patent US20130018061A1, “Method for Improving Exercise and Recovery From Exercise” (priority 2011, published 2013)

Tests used:
[1] = Study 2; effects typically experienced with high amounts of caffeine
Description: In this first study, twenty-one subjects (20 male, 1 female), all healthy and between the ages of 20 and 35 years were given the pre-workout supplement in capsule form to be taken 30 to 45 minutes before exercise on an empty stomach in place of any regularly consumed pre-workout product prior to the next exercise session. Subjects were instructed to maintain normal diet and activity. Subjects were surveyed for ratings of perceived effects on energy levels and mental focus. Subjects were also advised to supply general comments regarding the supplement in terms of negative side effects, comparison to other products, overall satisfaction and effectiveness.

[2] = 250 mg caffeine, 200 mg L-theanine, or both; cited from earlier work
[3] = absorbed in the small intestine; cited from earlier work
[4] = 50 mg or 200 mg after cycling exercise, fourteen healthy male subjects; cited from earlier work

| SMILES | jitters and energy crash [1] | effect on alertness, anxiety and blood pressure [2] | time of peak plasma levels [3] [min] | post-exercise mental regeneration [4] |
| --- | --- | --- | --- | --- |
| CCNC(=O)CC[C@H](N)C(=O)O [L-theanine, γ-N-ethylglutamine] | prevented jitters and the energy crash | only acted to counter the increase in blood pressure | ≤ 30 | accelerated post-exercise mental regeneration |
| Cn1c(=O)c2c(ncn2C)n(C)c1=O [caffeine, 1,3,7-trimethylxanthine] |  | increased alertness, anxiety, and blood pressure |  |  |
